“And” between values parts separate entries of the source, which are not always exact repeats. Equal entries are not always repeated.
How the values were obtained:
[1] = biological target: DRD2 (D2 long receptor) wild-type (Homo sapiens, UniProt P14416); assay: Radioligand competition binding, [3H]-N-methylspiperone, HEK293T membranes; conditions: DRD2; [3H]-methylspiperone (0.8-1.0 nM); read-out: Ki
[2] = biological target: T1, DRD4 (D4.4 variant) wild-type (Homo sapiens, UniProt P21917); assay: Radioligand competition binding, [3H]-N-methylspiperone
T1 sequence (P21917 1-419): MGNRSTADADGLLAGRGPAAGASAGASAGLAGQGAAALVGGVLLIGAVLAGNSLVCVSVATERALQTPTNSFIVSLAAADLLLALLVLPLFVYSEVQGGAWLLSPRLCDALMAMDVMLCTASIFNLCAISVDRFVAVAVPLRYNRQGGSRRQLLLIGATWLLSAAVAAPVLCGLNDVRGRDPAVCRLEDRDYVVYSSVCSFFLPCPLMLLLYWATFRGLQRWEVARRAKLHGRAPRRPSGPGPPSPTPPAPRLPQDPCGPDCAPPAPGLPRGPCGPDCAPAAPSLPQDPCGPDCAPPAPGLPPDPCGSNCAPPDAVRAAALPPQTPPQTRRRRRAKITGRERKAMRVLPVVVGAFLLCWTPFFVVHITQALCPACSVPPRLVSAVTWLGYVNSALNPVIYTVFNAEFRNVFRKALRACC

DRD2 (D2 long receptor) [3] = biological target: T2, DRD2 (D2 long receptor) (Homo sapiens, UniProt P14416); assay: Gαi/o-mediated cAMP inhibition (GloSensor split-luciferase cAMP reporter), HEK293T; type: cell-based; conditions: for Response, Fig_S11b dose-response: individual replicates;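 for all read-outs here: compounds applied 15 min at room temperature, then luciferin plus 400 nM isoproterenol to raise cAMP through endogenous β2-adrenergic receptors, luminescence read 15 min later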
DRD2 (D2 long receptor) [4] = biological target: T2, DRD2 (D2 long receptor); assay: β-arrestin2 recruitment (Tango), HTLA cells; type: cell-based; conditions: for Response, Fig_S11c dose-response: individual replicates
DRD3 wild-type = DRD3 wild-type (Homo sapiens, UniProt P35462); assay: Radioligand competition binding, [3H]-N-methylspiperone
DRD2 F1103.28A = DRD2 F1103.28A (Homo sapiens, UniProt P14416, F110A); type: binding; design: expressed in transfected cells; host or cells: HEK293T (ATCC CRL-11268); conditions: DRD2 F1103.28A; read-out: Ki
DRD3 = DRD3 (Homo sapiens, UniProt P35462); assay: β-arrestin2 recruitment (Tango); type: cell-based; conditions: DRD3, Tango
DRD4 (D4.4 variant) [5] = biological target: T3, DRD4 (D4.4 variant) (Homo sapiens, UniProt P21917); assay: Gαi/o-mediated cAMP inhibition (GloSensor); type: cell-based; conditions: DRD4; agonist, cAMP inhibition; read-out: EC50 ± SEM
T3 sequence (P21917 1-419): T1 sequence (P21917 1-419)

DRD4 (D4.4 variant) [6] = biological target: T3, DRD4 (D4.4 variant); assay: β-arrestin2 recruitment (Tango); type: cell-based; conditions: DRD4; Tango; read-out: EC50 ± SEM

T2 sequence (P14416 whole entry): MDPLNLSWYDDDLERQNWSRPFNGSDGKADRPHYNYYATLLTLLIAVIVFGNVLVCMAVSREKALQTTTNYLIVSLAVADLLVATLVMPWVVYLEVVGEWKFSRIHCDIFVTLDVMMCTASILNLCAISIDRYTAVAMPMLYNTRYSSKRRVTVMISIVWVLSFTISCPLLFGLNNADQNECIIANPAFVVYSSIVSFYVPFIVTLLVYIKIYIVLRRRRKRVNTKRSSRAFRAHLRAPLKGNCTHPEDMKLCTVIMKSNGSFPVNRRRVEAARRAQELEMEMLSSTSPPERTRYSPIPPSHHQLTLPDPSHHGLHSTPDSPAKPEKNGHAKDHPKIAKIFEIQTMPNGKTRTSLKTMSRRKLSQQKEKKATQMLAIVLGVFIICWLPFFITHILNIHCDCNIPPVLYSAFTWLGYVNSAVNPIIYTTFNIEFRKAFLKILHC
DRD3, sequence (P35462 whole entry): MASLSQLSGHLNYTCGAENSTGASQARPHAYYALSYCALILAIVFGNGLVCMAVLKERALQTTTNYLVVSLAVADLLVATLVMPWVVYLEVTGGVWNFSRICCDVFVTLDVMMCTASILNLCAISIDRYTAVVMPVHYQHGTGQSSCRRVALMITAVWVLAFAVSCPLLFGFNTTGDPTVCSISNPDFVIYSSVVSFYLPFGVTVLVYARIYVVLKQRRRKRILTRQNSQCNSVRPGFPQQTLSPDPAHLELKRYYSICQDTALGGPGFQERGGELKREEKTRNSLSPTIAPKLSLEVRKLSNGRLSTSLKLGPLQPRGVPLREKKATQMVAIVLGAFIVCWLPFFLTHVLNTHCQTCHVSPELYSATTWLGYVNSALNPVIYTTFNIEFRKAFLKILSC
DRD3 wild-type, sequence (P35462 whole entry): as above
DRD2 (D2 long receptor) wild-type, sequence (P14416 whole entry): as the sequence (P14416 whole entry) above
DRD2 F1103.28A, sequence (P14416 whole entry F110A): as the sequence (P14416 whole entry) above, with F110A counted along it

With CC(NCC1(O)CCCCC1)c1cc2ccccc2o1.Cl (stereo not drawn) [O1LE6] the Ki [1] was > 10000 nM, the Ki ([2]; DRD4, [3H]-methylspiperone (0.8-1.0 nM), read-out: Ki) was 5890 nM and the “pKi ± SEM” value ([2]; DRD4 wild-type) was 5.23±0.05. For the same compound, the EC50 (DRD2 (D2 long receptor) [3]; DRD2, agonist, Gαi/o-mediated cAMP inhibition, read-out: EC50 ± SEM) was 33.1 ± 18.8 nM, the “Emax relative to quinpirole response” value (DRD2 (D2 long receptor) [3]; DRD2, cAMP inhibition) was 91.90% and the “Response, Fig_S11b dose-response” value (DRD2 (D2 long receptor) [3]; Log[Drug] -5) was 89.3204 and 91.1814 and 93.3649 and 89.4471 and 88.0921 and 76.1419 and 96.2317 and 89.795 and 84.5788. The “Response, Fig_S11b dose-response” value (DRD2 (D2 long receptor) [3]; Log[Drug] -5.52) was 91.5039 and 91.6528 and 82.6955 and 86.6619 and 92.27 and 73.2437 and 89.2098 and 91.9183 and 89.3603, the “Response, Fig_S11b dose-response” value (DRD2 (D2 long receptor) [3]; Log[Drug] -6) was 93.6874 and 86.8392 and 81.0827 and 85.4951 and 84.0648 and 76.6312 and 94.0081 and 90.9486 and 79.3124 and the “Response, Fig_S11b dose-response” value (DRD2 (D2 long receptor) [3]; Log[Drug] -6.52) was 82.5466 and 82.8444 and 76.7653 and 79.6611 and 79.6234 and 70.5902 and 84.9299 and 83.4419 and 82.6896. The “Response, Fig_S11b dose-response” value (DRD2 (D2 long receptor) [3]; Log[Drug] -7) was 69.4705 and 74.0856 and 77.7579 and 57.4355 and 50.0583 and 54.3867 and 80.2821 and 76.3198 and 67.1078, the “Response, Fig_S11b dose-response” value (DRD2 (D2 long receptor) [3]; Log[Drug] -7.52) was 64.6321 and 55.65 and 60.3147 and 22.695 and 37.7317 and 15.9389 and 61.2396 and 56.2574 and 56.2742 and the “Response, Fig_S11b dose-response” value (DRD2 (D2 long receptor) [3]; Log[Drug] -8) was 44.0874 and 48.1814 and 41.755 and 12.175 and 7.433 and 11.554 and 48.1991 and 55.9732 and 50.8406. The “Response, Fig_S11b dose-response” value (DRD2 (D2 long receptor) [3]; Log[Drug] -8.52) was 32.3511 and 30.5646 and 24.436 and 24.7087 and -0.0952 and 5.9082 and 29.5745 and 42.6986 and 35.9443, the “Response, Fig_S11b dose-response” value (DRD2 (D2 long receptor) [3]; Log[Drug] -9) was 34.212 and 32.0286 and 29.2744 and 20.4555 and 1.072 and 15.4496 and 33.7709 and 34.4062 and 30.9956 and the “Response, Fig_S11b dose-response” value (DRD2 (D2 long receptor) [3]; Log[Drug] -11) was 20.5404 and 9.648 and 18.1596 and 0.62. The “Response, Fig_S11b dose-response” value (DRD2 (D2 long receptor) [3]; Log[Drug] -11.52) was 13.5185 and 18.481 and 17.1411 and 15.3743 and -1.1867 and 2.859, the “Response, Fig_S11b dose-response” value (DRD2 (D2 long receptor) [3]; Log[Drug] -12) was -3.8502 and -19.5316 and -15.1399 and -4.9694 and 6.341 and -2.4664 and 2.0891 and 0.1832 and -19.7287 and the “Emax relative to quinpirole response” value (DRD2 (D2 long receptor) [4]; DRD2, Tango) was 70.08%. The EC50 (DRD2 (D2 long receptor) [4]; DRD2, β-arrestin2 recruitment (Tango), read-out: EC50 ± SEM) was 797 ± 57.7 nM, the “response, Fig_S11c dose-response source data” value (DRD2 (D2 long receptor) [4]; Fig_S11c, Log[Drug] -5, replicate values) was 73.3598 and 82.2115 and 60.0642 and 63.6209 and 63.3142 and 65.0045 and 51.1507 and 58.9513 and 48.4491 and the “Response, Fig_S11c dose-response” value (DRD2 (D2 long receptor) [4]; Log[Drug] -6.52) was 30.014. For the same compound, the “Response, Fig_S11c dose-response” value (DRD2 (D2 long receptor) [4]; Log[Drug] -7) was 10.4893 and 10.462 and 11.7147 and 9.282 and 6.266 and 8.074 and 10.4045 and 10.5346 and 7.978, the “Response, Fig_S11c dose-response” value (DRD2 (D2 long receptor) [4]; Log[Drug] -7.52) was 6.009 and 6.371 and 5.905 and 4.934 and 4.227 and 4.993 and 4.682 and 6.374 and 4.32 and the “Response, Fig_S11c dose-response” value (DRD2 (D2 long receptor) [4]; Log[Drug] -8) was 4.1038 and 4.071 and 3.602 and 3.942 and 4.272 and 4.026 and 4.857 and 4.849 and 4.688. For the same compound, the “Response, Fig_S11c dose-response” value (DRD2 (D2 long receptor) [4]; Log[Drug] -8.52) was 3.803 and 4.0098 and 4.032 and 4.312 and 4.259 and 4.357 and 4.07 and 4.763 and 3.775, the “Response, Fig_S11c dose-response” value (DRD2 (D2 long receptor) [4]; Log[Drug] -9) was 4.244 and 4.685 and 3.406 and 3.869 and 4.425 and 4.183 and 3.883 and 3.8713 and 3.512 and the “Response, Fig_S11c dose-response” value (DRD2 (D2 long receptor) [4]; Log[Drug] -9.52) was 4.538 and 3.818 and 3.898 and 3.793 and 4.174 and 4.462 and 3.884 and 3.705 and 3.5. The “Response, Fig_S11c dose-response” value (DRD2 (D2 long receptor) [4]; Log[Drug] -10) was 3.12 and 5.224 and 4.08 and 4.167 and 4.261 and 4.387 and 3.865 and 3.579 and 4.318, the “Response, Fig_S11c dose-response” value (DRD2 (D2 long receptor) [4]; Log[Drug] -10.52) was 3.591 (2×) and 4.048 and 3.394 and 3.852 and 3.958 and 3.858 and 3.561 and 3.474 and the “Response, Fig_S11c dose-response” value (DRD2 (D2 long receptor) [4]; Log[Drug] -11) was 5.996 and 3.267 and 3.43 and 3.872 and 3.92 and 4.064 and 4.092 and 3.609 and 4.397. For the same compound, the “Response, Fig_S11c dose-response” value (DRD2 (D2 long receptor) [4]; Log[Drug] -11.52) was 4.744 and 4.248 and 3.765 and 3.919 and 3.901 and 3.85 and 3.587 and 4.237 and 3.779, the “Response, Fig_S11c dose-response” value (DRD2 (D2 long receptor) [4]; Log[Drug] -12) was 4.068 (2×) and 3.901 and 3.393 and 4.0327 and 3.921 and 3.9 and 3.99 and 3.547 and the Ki (DRD3 wild-type; DRD3, [3H]-methylspiperone (0.8-1.0 nM), read-out: Ki) was 760 nM. The “pKi ± SEM” value (DRD3 wild-type; DRD3 wild-type) was 6.12±0.17, the Ki (DRD2 F1103.28A) was > 10000 nM and the “Emax relative to quinpirole response” value (DRD3) was 32.40%. For the same compound, the EC50 (DRD3; read-out: EC50 ± SEM) was 2530 ± 290 nM, the EC50 (DRD4 (D4.4 variant) [5]) was > 10000 nM and the EC50 (DRD4 (D4.4 variant) [6]) was > 10000 nM.

Reference: paper PMC7044277 (Nature Communications, 2020)
